Experimental findings from PubChem BioAssay AID330 (DTP/NCI, 2004) are described below.

Where “and” joins values, the source holds several entries; their conditions need not be identical. Identical values can stand only once. Inconclusive results and toxic doses are left out.

For this assay, the system named is P388 leukemia ip, CD2F1 mice, survival T/C. Kind of assay: NCI In Vivo Anticancer Drug Screen. Data for tumor model P388 Leukemia (intraperitoneal) in CD2F1 (CDF1) mice. To be noted: endpoint: median survival time, higher = longer survival. An outline of the steps: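 Mice carrying the transplanted tumor received test compound or vehicle. Survival was recorded in each group, and the value is the treated-group measurement divided by that of the vehicle-treated control group.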

The mark [1] stands for this setting: dose: 60.0 mg/kg/injection, schedule: Q01DX005 (ip), vehicle: Klucel (hydroxypropylcellulose) (HPC).
[2] abbreviates: dose: 120.0 mg/kg/injection, schedule: Q01DX005 (ip), vehicle: Klucel (hydroxypropylcellulose) (HPC).
Where [3] appears, read: dose: 240.0 mg/kg/injection, schedule: Q01DX005 (ip), vehicle: Klucel (hydroxypropylcellulose) (HPC).
[4] abbreviates: dose: 200.0 mg/kg/injection, schedule: Q01DX009 (ip), vehicle: saline with Tween-80.
Where [5] appears, read: dose: 50.0 mg/kg/injection, schedule: Q01DX005 (ip), vehicle: saline with Tween-80.
The mark [6] stands for this setting: dose: 100.0 mg/kg/injection, schedule: Q01DX005 (ip), vehicle: saline with Tween-80.
The mark [7] stands for this setting: dose: 200.0 mg/kg/injection, schedule: Q01DX005 (ip), vehicle: saline with Tween-80.
[8] abbreviates: dose: 50.0 mg/kg/injection, schedule: Q01DX005 (ip), vehicle: saline.
Setting [9] is: dose: 100.0 mg/kg/injection, schedule: Q01DX005 (ip), vehicle: saline.

Turning to `NCCCC(NN)C(=O)O` (stereo not given), the T/C reads like this: (dose: 3.3 mg/kg/injection, schedule: Q01DX009 (ip), vehicle: saline) 101 % of control and 90 % of control; (dose: 6.6 mg/kg/injection, schedule: Q01DX009 (ip), vehicle: saline) 100 % of control and 95 % of control; (dose: 7.5 mg/kg/injection, schedule: Q01DX009 (ip), vehicle: saline) 100 % of control; (dose: 10.0 mg/kg/injection, schedule: Q01DX009 (ip), vehicle: saline) 99 % of control and 97 % of control; (dose: 15.0 mg/kg/injection, schedule: Q01DX009 (ip), vehicle: saline) 109 % of control and 93 % of control; (dose: 22.5 mg/kg/injection, schedule: Q01DX009 (ip), vehicle: saline) 102 % of control and 110 % of control. The T/C (dose: 30.0 mg/kg/injection, schedule: Q01DX009 (ip), vehicle: saline) is 103 % of control.
Take `O=C(O)CCCC/C=C/CCCCCCC1C=CCC1` (stereo not given): the T/C was 93 % of control (dose: 100.0 mg/kg/injection, schedule: Q04DX003 (ip), vehicle: saline); 98 % of control (dose: 200.0 mg/kg/injection, schedule: Q04DX003 (ip), vehicle: saline); 91 % of control (dose: 400.0 mg/kg/injection, schedule: Q04DX003 (ip), vehicle: saline).
With `O=C1S/C(=C2\C(=O)N(CN3CCOCC3)c3ccccc32)C(=O)N1CN1CCOCC1`, the T/C by setting is: under setting [1], 100 % of control; under setting [2], 108 % of control; under setting [3], 108 % of control.
Turning to `COc1ccc(C2OC(=N)C(=S)N2C)c(OC)c1` (stereo not given), the T/C was 102 % of control under setting [1], 104 % of control under setting [2] and 101 % of control under setting [3].
On to `CCN(CCO)CCNc1ccc(CO)c2sc3cc(Cl)ccc3c(=O)c12`, for which the T/C was 105 % of control (dose: 88.0 mg/kg/injection, schedule: Q01DX009 (ip), vehicle: saline with Tween-80); 113 % of control (dose: 133.0 mg/kg/injection, schedule: Q01DX009 (ip), vehicle: saline with Tween-80); 112 % of control under setting [4]; 102 % of control (dose: 300.0 mg/kg/injection, schedule: Q01DX009 (ip), vehicle: saline with Tween-80).
Take `CCn1ncc2c1nc(-c1ccccc1)c[n+]2[O-]`: the T/C reads like this: under setting [1], 92 % of control; under setting [2], 100 % of control; under setting [3], 101 % of control.
As for `O=c1[nH]cc(N=Cc2cccc3c2OCO3)c(=O)[nH]1`, the T/C reads like this: (dose: 100.0 mg/kg/injection, schedule: Q01DX001 (ip), vehicle: suspension in saline) 99 % of control; (dose: 200.0 mg/kg/injection, schedule: Q01DX001 (ip), vehicle: suspension in saline) 86 % of control.
For the compound `Cc1cccc(N=C(c2ccccc2)C2C(=O)c3ccccc3C2=O)c1`, the T/C by setting is: under setting [5], 94 % of control; under setting [6], 94 % of control; under setting [7], 91 % of control.
Regarding `COC1C=COC2(C)Oc3c(C)c(O)c4c(O)c(c(C5SCCS5)c(O)c4c3C2=O)NC(=O)C(C)=C/C=C\C(C)C2OC(C)(C)OC(C2C)C(C)C(OC(C)=O)C1C` (stereo not given), the T/C (dose: 50.0 mg/kg/injection, schedule: Q01DX009 (ip), vehicle: saline with Tween-80) is 109 % of control; the T/C (dose: 100.0 mg/kg/injection, schedule: Q01DX009 (ip), vehicle: saline with Tween-80) was 102 % of control; the T/C under setting [4] was 96 % of control.
As to `CCCCCNC(=S)N/N=C(\C)c1ccccn1`, the T/C was 107 % of control (dose: 12.5 mg/kg/injection, schedule: Q01DX009 (ip), vehicle: Klucel (hydroxypropylcellulose) (HPC)); 123 % of control (dose: 25.0 mg/kg/injection, schedule: Q01DX009 (ip), vehicle: Klucel (hydroxypropylcellulose) (HPC)); 106 % of control (dose: 50.0 mg/kg/injection, schedule: Q01DX009 (ip), vehicle: Klucel (hydroxypropylcellulose) (HPC)).
Regarding `NNS(=O)(=O)c1ccc2ccccc2c1`, the T/C was 102 % of control (dose: 12.5 mg/kg/injection, schedule: Q01DX009 (ip), vehicle: other); 102 % of control and 86 % of control (dose: 25.0 mg/kg/injection, schedule: Q01DX009 (ip), vehicle: other); 86 % of control (dose: 50.0 mg/kg/injection, schedule: Q01DX009 (ip), vehicle: other); 102 % of control and 95 % of control (dose: 100.0 mg/kg/injection, schedule: Q01DX009 (ip), vehicle: other); 101 % of control and 95 % of control (dose: 200.0 mg/kg/injection, schedule: Q01DX009 (ip), vehicle: other).
With `CCC[CH2][Sn]([CH2]CCC)([n]1ccnc1)[n]1ccnc1`, the T/C is 116 % of control (dose: 3.12 mg/kg/injection, schedule: Q01DX005 (ip), vehicle: Klucel (hydroxypropylcellulose) (HPC)) and 110 % of control (dose: 6.25 mg/kg/injection, schedule: Q01DX005 (ip), vehicle: Klucel (hydroxypropylcellulose) (HPC)).
On to `C1=CN2C(c3ccccc3)=NON(c3ncccn3)C2N=C1` (stereo not given), for which the T/C reads like this: (dose: 60.0 mg/kg/injection, schedule: Q01DX005 (ip), vehicle: saline with Tween-80) 96 % of control; (dose: 120.0 mg/kg/injection, schedule: Q01DX005 (ip), vehicle: saline with Tween-80) 91 % of control; (dose: 240.0 mg/kg/injection, schedule: Q01DX005 (ip), vehicle: saline with Tween-80) 90 % of control.
Consider `CCCCCCCCCCCCCCCn1nnnc1N`, for which the T/C runs as follows: under setting [5], 86 % of control; under setting [6], 91 % of control; under setting [7], 96 % of control.
Consider `Cc1nc(CC#N)c(C(N)=O)c(Nc2ccccc2)n1`, for which the T/C was 92 % of control (dose: 100.0 mg/kg/injection, schedule: Q01DX001 (ip), vehicle: saline with Tween-80); 92 % of control (dose: 200.0 mg/kg/injection, schedule: Q01DX001 (ip), vehicle: saline with Tween-80); 111 % of control (dose: 400.0 mg/kg/injection, schedule: Q01DX001 (ip), vehicle: saline with Tween-80).
With `CNC(=O)n1cccc(OC)c1=O`, the T/C was 102 % of control and 107 % of control (dose: 12.5 mg/kg/injection, schedule: Q01DX009 (ip), vehicle: saline); 100 % of control and 111 % of control (dose: 25.0 mg/kg/injection, schedule: Q01DX009 (ip), vehicle: saline).
For the compound `CC1(C)OC(=O)N=C1c1cccc(Cl)c1`, the T/C under setting [1] was 102 % of control, the T/C under setting [2] was 101 % of control and the T/C under setting [3] was 117 % of control.
For `C=C=C(C)C(c1ccccc1)N(C)C` (stereo not given), the T/C is 108 % of control under setting [8] and 109 % of control under setting [9].
On to `C[C@H]1CC(=O)C[C@H]2CCCCN21`, for which the T/C reads like this: (dose: 12.5 mg/kg/injection, schedule: Q01DX005 (ip), vehicle: saline) 103 % of control; (dose: 25.0 mg/kg/injection, schedule: Q01DX005 (ip), vehicle: saline) 105 % of control; under setting [8], 101 % of control.
For the compound `Cc1cccc(Cl)c1NC(=O)CN(C)CCN1CCCC1`, the T/C is, setting by setting: (dose: 60.0 mg/kg/injection, schedule: Q01DX005 (ip), vehicle: saline) 103 % of control; (dose: 120.0 mg/kg/injection, schedule: Q01DX005 (ip), vehicle: saline) 110 % of control.
With `COc1cc(C2CC(C)(N3CCCC3)Oc3cc4c(cc32)OCO4)cc(OC)c1OC` (stereo not given), the T/C under setting [1] is 106 % of control and 109 % of control.
Take `Cc1cnc(F)nc1F`: the T/C is 94 % of control under setting [8] and 97 % of control under setting [9].
